Consider 1 substance from US20080194506A1, “Oligodeoxyribonuleotides of 4000-10000 Dalton for Treating” (Gentium SPA, priority 2005, published 2008).

Experiment [1] concerns transdifferentiating ELC (TuDC-ELC). Briefly: Matrigel tube formation assay of TuDC-ELC. The format is cell-based, human. From the text:
We have recently developed a model for an alternative pathway of tumor angiogenesis. […] These endothelial-like cells (ELC) can transdifferentiate from tumor-associated dendritic cells under specific culture conditions (11). Briefly, monocytes are elutriated from leukapheresis products of healthy human blood donors and cultured in the presence of granulocyte-macrophage-colony stimulating factor (GM-CSF) and interleukin 4 (IL-4) to stimulate the differentiation of dendritic cells (DC). In addition, cells are treated with a cocktail specifically released by tumor cells (M-CSF, IL.6 and lactate, Gottfried et al., manuscript submitted) to promote the outgrowth of tumor-associated dendritic cells (TuDC).
These TuDC-ELC acquire the phenotype of endothelial cells (FactorVIII related Ag, vWF) while they lose monocytic (CD14) and dendritic cell markers (CD1a). […] In addition, they are able to form tube-like structures in Matrigel™, an in vitro assay of angiogenesis.
The Matrigel™ assay is one of the most popular and widely used in vitro angiogenesis assays (22). […]
By the help of a complimentary software from the NIH (Image J, http://rsb.info.nih.gov/ij/), we are able to quantify these effects, the total length of tubes and the area of the photograph are assessed, the microvascular density (MVD) is then given in total length/area [pix-1].

Experiment [2] has as its system human umbilical vene (HUVEC) endothelial cells. Nature of the experiment: Matrigel tube formation assay of HUVEC. The format is cell-based. The settings on record: single addition, 10 μg/mL, 7 days, FIG. 1A. The protocol:
(§1) The Matrigel™ assay is one of the most popular and widely used in vitro angiogenesis assays (22). Matrigel™ is a semisolid synthetic mixture of extracellular matrix proteins which simulate the matrix that physiologically exist beneath the endothelial cell wall of a blood vessel. When the cells of question are seeded onto this matrix in microscopic chamber slides, they are activated to form tubular structures in 3-7 days, but only in the case that they have an endothelial phenotype. Therefore, this assay is suitable to show the potential capacity of cells to give rise to a tumor vasculature.
(§2) TuDC-ELC and mature, differentiated endothelial cells, [human umbilical vene (HUVEC) or microvascular endothelial cells (HMEC) as “stable” controls] were incubated in the presence or absence of oligotide or Defibrotide (10 μg/mL each) for 7 days.

Experiment [3] relates to microvascular endothelial cells (HMEC). Nature of the experiment: Matrigel tube formation assay of HMEC. The settings on record: single addition, 10 μg/mL, 7 days, FIG. 1A. It counts as cell-based, human. How it is done:
as §1, §2

Experiment [4] has as its system rat aorta endothelial cells. Briefly: Aortic ring assay: sprouting of rat aorta endothelial cells in Matrigel. The format is cell-based. The settings on record: applied on a daily basis, FIG. 2.
In experiment [5] the test system is human microvascular endothelial cells. Briefly: In vitro angiogenesis assay: microvascular endothelial cells vascularizing through a layer of dermal fibroblasts. The format is cell-based. The protocol:
The aortic ring assay investigates macrovascular endothelial cells. But often, the tumor vasculature consists of microvascular endothelial cells. Therefore, a third in vitro angiogenesis assay was performed on the basis of microvascular endothelial cells vascularizing through a layer of dermal fibroblasts after 9-11 days of culture. These vessel-like structures can subsequently be visualized by staining for CD31 and vWF.

A further experiment concerns human gastric carcinoma. Nature of the experiment: Dorsal skin chamber assay, human gastric carcinoma mouse model (Xenograft system). The format is in vivo. The following applies: treated vs control tumors; first data. The text has this:
We are currently performing a dorsal skin chamber assay (14) that investigates the effect of defibrotide in a highly vascularized human gastric carcinoma mouse model (Xenograft system). […] This set of experiments will be reproduced in due time.
In general terms: In xenograft studies the graft and the host belong to different species.

For experiment [6], the system named is activated p70S6 kinase (p-p70S6). Briefly: Western Blot analyses of activated p70S6 kinase. It counts as cell-based. The settings on record: preliminary evidence. Background: A western blot detects proteins with antibodies after separation by electrophoresis.
The subject of a further experiment is serum VEGF. Briefly: Serum VEGF levels in patients after allogeneic stem cell transplantation. The settings on record: cohort of 17 treated patients after allogeneic SCT. It counts as in vivo, human.

Take defibrotide: in experiment [1] (10 μg/mL, 7 days, clinical and subclinical concentrations), the “tube formation of transdifferentiating ELC (TuDC-ELC) in Matrigel” value is “can inhibit tube formation”. Besides, the “microvascular density (MVD) of TuDC-ELC, total length/area” value in experiment [1] (Image J quantification, p=0.02 TTEST, FIG. 1B) was “significantly (p=0.02, TTEST) downregulates MVD”. Besides, the “tube formation potential of HUVEC” value in experiment [2] is listed as “not affected”. Also, the “tube formation potential of HMEC” value in experiment [3] is on record as “not affected”. For the same substance, the “prevention of sprouting of rat aorta endothelial cells in Matrigel” value in experiment [4] is given as ~100%. For the same substance, the “angiogenesis of human microvascular endothelial cells” value was “can also block angiogenesis” in experiment [5] (daily application, 9-11 days of culture, FIGS. 3A and B); “could not significantly block angiogenesis” in experiment [5] (single application). For the same substance, in experiment [5] (human microvascular endothelial cells, FIGS. 3A and B), the “most effective concentration for blocking angiogenesis” value was “around 10 μg/mL”. In addition, in the experiment on human gastric carcinoma, the “microvascular density (MVD) of tumors” value was “lower than that of control tumors”. Besides, in experiment [6], the “effect on activated p70S6 kinase (p-p70S6)” value is given as “downregulating effect”. For the same substance, the “serum VEGF levels” value in the experiment with serum VEGF was “striking decline”.
